Patent US10357477B2, “Anticancer compounds” (REGENTS OF THE UNIVERSITY OF MINNESOTA, priority 2016, dated 2019)
In brackets after ≈: the same amount, converted by molar mass.

Key:
[1] = Thermodynamic solubility assay; assay type: physicochemical; settings: aqueous buffer, thermodynamic from solid, DPBS pH=7.4, 48 h, ambient temperature
Protocol: Briefly, a saturated solution was made by adding DPBS to the solid compound. The mixture was shaken at 200 rpm for 48 h in a MaxQ 6000 orbital shaker at ambient temperature to allow equilibrium between the solid and dissolved compound. The suspension was then filtered through a 0.45 μm PVDF syringe filter and the filtrate was collected for analysis using UV spectrometry (SpectraMax M5e, Molecular Devices) at λ=240 nm.

[2] = test system: MCF10A cells (normal human mammary cells); test: Cell viability assay (MTT) in MCF10A cells; assay type: cell-based; settings: MCF-10A, 72 h
Protocol: MCF10A cells are maintained in minimum essential medium (MEM) (Invitrogen 11095) supplemented with 10% FBS (Invitrogen 16000), 1% 10× non-essential amino acids (NEAA) (Invitrogen 11140), 1% Penicillin/Streptomycin (Invitrogen 15140), 1% GlutaMAX (Invitrogen 35050-061), 20 ng/mL EGF, […] hydrocortisone, 100 ng/mL cholera toxin, 10 μg/mL insulin.
Cells were plated in 96-well plates at 25×10^4 cells/ml. After 24 hours, compounds were added at 9, 3× dilutions in triplicate from 100 uM final concentration in the appropriate growth media. Plates were incubated for 72 hours at 37° C. in a 5% CO2/95% air humidified atmosphere after which time the media was removed and MTT was added in RPMI phenol red free media. The MTT was removed after 3 hours and formazan crystals were solubilized with 200 μL of isopropanol. Plates were read on a Molecular Devices SpectraMax i3 spectrophotometer at 570 nm for formazan and 690 nm for background subtraction. EC50 values were calculated by fitting the data in GraphPad Prism software.

[3] = Plasma stability assay, human plasma; assay type: in vitro ADME; settings: 37° C.
Protocol: (§1) The plasma stability assay was performed in triplicate by incubating a compound in normal mouse and human plasma at 37° C. At 0, 1, 3, 6, and 24 h, aliquots of the plasma mixture were taken and quenched with 3 volumes of acetonitrile containing an appropriate internal standard. The samples were then vortexed and centrifuged at 14,000 rpm for 5 min. The supernatants were collected and analyzed by LC-MS/MS to determine the remaining percentage at various time points.
(§2) Quantification and analysis of compounds in biological samples were carried out on an AB Sciex QTrap 5500 mass spectrometer coupled with an Agilent 1260 Infinity HPLC. The chromatographic separation of compounds was achieved using a Phenomenex Kinetex C18 column (50×2.1 mm, 2.6 μm), and MS/MS analysis was conducted using an ESI ion source with MRM detection. The MS/MS detection parameters including declustering potential (DP), entrance potential (EP), collision energy (CE), and collision cell exit potential (CXP) were optimized for each compound.

Panc-1 cells = test: Cell viability assay (MTT) in Panc-1 cells; assay type: cell-based; settings: Homo sapiens, antiproliferative activity, 72 h
Method in brief: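 After 24 h plating, Panc-1 cells were exposed for 72 h at 37 °C to compound in a nine-point 3-fold series from 100 uM final, in triplicate. Viability read by MTT reduction (570 nm, 690 nm background); EC50 fitted from the curves.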

MIA PaCa-2 cells = test: Cell viability assay (MTT) in MIA PaCa-2 cells; assay type: cell-based; settings: Homo sapiens, antiproliferative activity, 72 h
Method in brief: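 MIA PaCa-2 cells exposed 72 h at 37° C to 2-fold serial compound dilutions from 100 μM final, 0.5% DMSO, in triplicate. Viability by MTT (3 h), formazan read at 570 nm minus 650 nm; EC50 from curve fit.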

[4] = Microsomal stability assay, human liver microsomes; assay type: in vitro ADME; settings: pH 7.4; human liver microsomes 0.5 mg/mL, 1 mM NADPH, 1 μM compound; read-out: Microsomal Stability t1/2 Human
Protocol: (§3) The in vitro microsomal stability assay was conducted in triplicate in mouse and human liver microsomal systems. In a typical incubation, a compound (typically 1 μM final concentration) was spiked into the reaction mixture containing 0.5 mg/mL of liver microsomal protein and 1 mM of NADPH in 0.1 M potassium phosphate buffer (pH 7.4) at 37° C. At various time points, 1 volume of reaction aliquot was taken and quenched with 3 volumes of acetonitrile with an appropriate internal standard. The samples were then vortexed and centrifuged at 14,000 rpm for 5 min. The supernatants were collected and analyzed by LC-MS/MS to determine the in vitro metabolic half-life (t1/2) and intrinsic clearance (CLint). Verapamil was used as a positive control.
as §2

[5] = Plasma stability assay, mouse plasma; assay type: in vitro ADME; settings: 37° C.
Protocol: as §1, §2

[6] = Microsomal stability assay, mouse liver microsomes; assay type: in vitro ADME; settings: pH 7.4; mouse liver microsomes 0.5 mg/mL, 1 mM NADPH, 1 μM compound; read-out: Microsomal Stability t1/2 Mouse
Protocol: as §3, §2

In the case of `CNC(=O)c1cccc(Cn2nc(C)c(NC(=O)c3ccc(COc4ccc(C(F)(F)F)cc4)cc3)c2C)c1` [Compound D9c, 3-((3,5-Dimethyl-4-(4-((4-(trifluoromethyl)phenoxy)-methyl)benzamido)-1H-pyrazol-1-yl)methyl)-N-methylbenzamide], the solubility at 48 h [1] is reported as 67.3 ± 5.2 µM (≈ 36.1 µg/mL), the EC50 [2] is reported as 6700 nM and the “Plasma Stability (% remaining, 6 h/24 h) Human” value ([3]; 6 h) is reported as 99%. The “Plasma Stability (% remaining, 6 h/24 h) Human” value ([3]; 24 h) was 100%, the EC50 (Panc-1 cells) was 210 nM and the EC50 (MIA PaCa-2 cells) was 800 nM. The half-life at 1 μM [4] was 34 min, the “Plasma Stability (% remaining, 6 h/24 h) Mouse” value ([5]; 6 h) was 91% and the “Plasma Stability (% remaining, 6 h/24 h) Mouse” value ([5]; 24 h) was 77%. For the same compound, the half-life at 1 μM [6] was 60 min.
